≈ marks a conversion by molar mass, not a printed value. Bounds are passed on as bounds.

This note sets out measurements from PubChem BioAssay AID1996.

The conditions of the data set: buffer; pH 7.4; 200.0 µM.
By solubility (kinetic) is commonly meant solubility judged after dilution from a stock solution rather than from solid. As to `NC(=O)c1ccc(NCCc2ccccc2)c([N+](=O)[O-])c1`, the solubility (kinetic) worked out at 5 µg/mL (≈ 17.5 µM).

In the case of `Cc1ccc(N2C(=O)C3CCC(C)(C2=O)C3(C)C)cc1` (stereo unspecified), the kinetic solubility was found to be 26.7 µg/mL (≈ 98.4 µM).

For `CC1(C)Cc2ccccc2C(NN=C2CCCC2)=N1`, the solubility (kinetic) is more than 38.3 µg/mL.

In turn, `COc1ccc2[nH]c(=S)cc(C)c2c1` showed a kinetic solubility of 8.9 µg/mL (≈ 43.4 µM).

In the case of `O=C(Nc1nc(-c2cccnc2)cs1)c1ccc([N+](=O)[O-])cc1`, the solubility (kinetic) came to 3.2 µg/mL (≈ 9.81 µM).

In the case of `Cc1ccnc(SC2CC(=O)N(c3ccc(Br)cc3)C2=O)n1` (stereo unspecified), the solubility (kinetic) worked out at 44.1 µg/mL (≈ 117 µM).

`O=C(NNC(=O)c1ccccc1C(=O)O)c1cc2ccccc2o1` showed a solubility (kinetic) of more than 48.6 µg/mL.

In turn, `Cc1[nH]c2ccc(C(=O)NCCCN3CCOCC3)cc2c1C` gave a solubility (kinetic) of more than 47.3 µg/mL.

The compound `Cc1cc(NC(=O)c2ccccc2C)no1` gave a kinetic solubility of more than 32.4 µg/mL.

With `Cc1cccc(C)c1NC(=O)COC(=O)c1ccccc1O`, the solubility (kinetic) came out at 3 µg/mL (≈ 10 µM).

`CCC(=O)c1ccc(OCCn2cnc3ccccc32)cc1.Cl` returned a solubility (kinetic) of 43.7 µg/mL.

In the case of `CS(=O)(=O)c1ccc(Cl)c(NC(=O)CN2CCN(C(=O)c3cccs3)CC2)c1`, the solubility (kinetic) is more than 66.3 µg/mL.

The compound `O=c1c(Cc2ccc(F)cc2)c(O)ccn1CC1CCCO1` (stereo unspecified) showed a solubility (kinetic) of more than 45.5 µg/mL.

In turn, `NC(=O)CSc1ccc(S(=O)(=O)N2CCOCC2)cn1` displayed a solubility (kinetic) of more than 47.6 µg/mL.

Take `COC(=O)c1cccc(CSC(=S)N2CCCC2)c1`: the kinetic solubility was determined as 3.6 µg/mL (≈ 12.2 µM).

Regarding `CCCCC1(C)NC(=O)N(CC(=O)N2CCc3ccccc32)C1=O` (stereo unspecified), the solubility (kinetic) was more than 49.4 µg/mL.

Compound `Cc1ccc(C(=O)Nc2ccc(C(=O)NCC3CCCO3)cc2)cc1` (stereo unspecified) returned a kinetic solubility of 3.5 µg/mL (≈ 10.3 µM).

On to `Cc1ccc(CNC(=O)CCc2c(C)[nH]c(=O)c(C#N)c2C)cc1`, for which the kinetic solubility was more than 48.5 µg/mL.

Take `CN(Cc1c(F)cccc1Cl)C(=O)CCc1c[nH]c2ccccc12`: the kinetic solubility is 11.9 µg/mL (≈ 34.5 µM).

Take `CC(Oc1ccc(C#N)cc1)C(=O)N1CC=C(c2ccccc2)CC1` (stereo unspecified): the kinetic solubility was 38.4 µg/mL (≈ 116 µM).

Turning to `CC(=O)c1cc(C#N)c(SCC(=O)Nc2nccs2)nc1C`, the solubility (kinetic) came to 0.7 µg/mL (≈ 2.11 µM).

For `CCOc1cccc(C(=O)Nc2ccc3oc(-c4cccnc4)nc3c2)c1`, the solubility (kinetic) is less than 0.3 µg/mL.

In turn, `Cc1ccc(N=C2C(=O)Nc3ccc(C)c(Br)c32)cc1` came in with a solubility (kinetic) of 32.6 µg/mL (≈ 99 µM).

Compound `CN(Cc1nc2ccccc2c(=O)[nH]1)C(=O)c1cc2c(s1)CCCCC2` showed a solubility (kinetic) of 4.8 µg/mL (≈ 13.1 µM).

`O=C(CCc1nc(-c2ccccc2Cl)no1)NCc1ccco1`: the solubility (kinetic) was more than 49.8 µg/mL.

Compound `COCc1cc(=O)[nH]c(SCC(=O)N2CCOCC2)n1` displayed a kinetic solubility of more than 44.9 µg/mL.

`CC(N=Cc1c(O)c2ccccc2oc1=O)C(=O)O` (stereo unspecified) gave a solubility (kinetic) of more than 39.2 µg/mL.

Turning to `CN(C)C(=O)COc1ncnc2scc(-c3ccc(F)cc3)c12`, the kinetic solubility is 45.8 µg/mL (≈ 138 µM).

In the case of `O=C1C2=C(CCCC2)C(=O)N1CNc1ccccc1`, the solubility (kinetic) turned out to be 33 µg/mL (≈ 129 µM).

Compound `COc1cccc(C=O)c1OCCCOc1cccc2cccnc12` showed a kinetic solubility of 34.9 µg/mL (≈ 103 µM).

Compound `Cc1cc(Oc2ccc(OCC(N)=O)nn2)nc(Cl)n1` had a kinetic solubility of more than 44.4 µg/mL.

`O=C(O)CC1(CC(=O)Nc2cccc(C(=O)O)c2)CCCC1` showed a solubility (kinetic) of more than 45.8 µg/mL.

`Cc1c(C(=O)N2CCC2)oc2c(F)cccc12`: the solubility (kinetic) was 30.3 µg/mL (≈ 130 µM).

In turn, `CCN(CC(=O)Nc1ccc2c(c1)OCCO2)C(=O)c1ccc(CS(C)(=O)=O)cc1` came in with a kinetic solubility of more than 64.9 µg/mL.

Compound `CCN1CCc2nc(N)sc2C1` displayed a kinetic solubility of 25.8 µg/mL (≈ 141 µM).

In turn, `Cc1cc(C)c2c(N)c(C(=O)c3ccc(Br)cc3)oc2n1` returned a kinetic solubility of 1.2 µg/mL (≈ 3.48 µM).

Take `COc1ccc(C(CNS(=O)(=O)c2cccc(F)c2)N2CCCC2)cc1.Cl` (stereo unspecified): the solubility (kinetic) is more than 62.2 µg/mL.

Turning to `COc1ccc(S(=O)(=O)N2CCOCC2)cc1NC(=O)COc1ccc(C)cc1`, the kinetic solubility is 28.4 µg/mL (≈ 67.5 µM).

`Cc1cccc2cc(-c3nc4ccc(C(=O)O)cc4[nH]3)c(=O)oc12` had a kinetic solubility of 26.9 µg/mL (≈ 84 µM).

`CCCCCCCCN=Cc1c(O)[nH]c(=O)[nH]c1=O` returned a kinetic solubility of 1 µg/mL (≈ 3.74 µM).

In turn, `O=C(O)c1ccccc1-c1ncc(-c2ccccc2)o1` displayed a solubility (kinetic) of more than 39.8 µg/mL.

For `CCOc1ccc(CN2C(=O)c3ccccc3C2=O)cc1C(=O)O`, the solubility (kinetic) was more than 48.8 µg/mL.

The compound `CCOP(=O)(OCC)C(Cc1ccccc1)NC(C)=O` (stereo unspecified) yielded a kinetic solubility of 43.5 µg/mL (≈ 145 µM).

As to `Cn1cc(-c2ccccc2C(=O)O)c(=O)c2cc(Cl)ccc21`, the kinetic solubility was more than 47.1 µg/mL.

Compound `COc1cccc(NC(=S)Nc2ccc(Br)cc2Cl)c1` yielded a solubility (kinetic) of 4.6 µg/mL (≈ 12.4 µM).

As for `CC(=O)c1cccc(NC(=O)COC(=O)C2CCCN2C(=O)c2cccs2)c1` (stereo unspecified), the kinetic solubility was 6.5 µg/mL (≈ 16.2 µM).

In the case of `CCOC(=O)c1ccc(S(=O)(=O)Nc2cc(S(=O)(=O)Nc3ccc(OC)cc3)ccc2O)cc1`, the solubility (kinetic) was 72.8 µg/mL (≈ 144 µM).

The compound `S=C(Nc1cccnc1)N1CCN(c2ccccc2Cl)CC1` had a solubility (kinetic) of 44.2 µg/mL (≈ 133 µM).

`CCCCNC(=O)CN1C(=O)NC(CCc2ccccc2)C1=O` (stereo unspecified) yielded a kinetic solubility of 33.8 µg/mL (≈ 106 µM).

`CN(C)c1ccc(-c2nc3ccccc3c(=O)[nH]2)cc1` had a kinetic solubility of 1.9 µg/mL (≈ 7.16 µM).

The compound `Cc1ccccc1NC(=O)CCCN1C(=O)C2CC=CCC2C1=O` (stereo unspecified) gave a kinetic solubility of more than 49 µg/mL.
